Data reported in US5593985A, “Cephalosporin compounds” (priority 1994, dated 1997).
Converted amounts (≈) assume the structure as drawn. Where two headings read alike, the source gives them in different places.

Columns and labels:
Escherichia coli TEM = experiment: MIC, standard strain 10; format: cell-based; settings: 18 h, read-out: Minimal Inhibitory Concentration(MIC)
Description: (§1) In order to illustrate antibiotic effectiveness of the compounds of the present invention, the minimal inhibitory concentrations (MIC's) of the representative compounds were determined against standard strains and compared with ceftazidime and cefpirome, which were used as control compounds.
(§2) The MIC values were taken by employing a two-fold dilution method: that is, two-fold serial dilutions of each of the test compounds were made from initial concentration of […]; each 1.5 ml of them was dispersed in 13.5 ml of Muller Hinton agar medium to adjust to […]; the standard test strain which had the concentration of 10^7 CFU/ml was inoculated by medium;and these were incubated at 37° C. for 18 hours.
(§3) The test used twenty kinds of standard test strains which induced urinary tract infections, respiratory organ infections, skin soft tissue infections, plasma infections, gastrointestinal infections, central nervous system infections, most of which produce β-lactamase.

[1] = tested on: Streptococcus pyogens A77; experiment: antibiotic activity against systemic infection in mice; format: in vivo; settings: A77, im, bacteria intraperitoneally, intramuscular injection, 5 to 0.078 mg/kg, probit method (confidence limit), read-out: PD50
Description: In order to illustrate clinical effectiveness of the compounds of the present invention more specifically, the stability to β-lactamase and antibiotic activity against systemic infection, were tested, and the results are shown in Table 4 and 5, respectively.
Antibiotic activity against systematic infection was tested by using mice: that is, 0.3 ml of a strain solution containing fatal dose of bacteria in 0.3 ml was administered to mice intraperitoneally; and then, the test antibiotics were administered intramuscularly in an amount of 5 to 0.078 mg/kg. PD50 was calculated by probit method.

[2] = tested on: Staphylococcus aureus 503; experiment: MIC, standard strain 6; format: cell-based; settings: Staphylococcus aureus; S. aureus 503; two-fold dilution, Muller Hinton agar, 10^7 CFU/ml, 37° C., 18 hours; read-out: Minimal Inhibitory Concentration(MIC)
Description: as §1, §2
(§4) The test used twenty kinds of standard test strains which induced urinary tract infections, respiratory organ infections, skin soft tissue infections, plasma infections, gastrointestinal infections, central nervous system infections, most of which produce β-lactamase. The standard test strains used are as follows:
6. Staphylococcus aureus 503

acute toxicity test = settings: in vivo, iv
D StreptococcusII = experiment: MIC, clinically separated strains; format: cell-based, D Streptococcus; settings: Streptococcus, 18 h; for MIC: read-out: range of MIC
Description: as §2

Escherichia coli 1507 E = experiment: MIC, standard strain 11; format: cell-based; settings: E. coli 1507 E, two-fold dilution, Muller Hinton agar, 10^7 CFU/ml, 37° C., 18 hours, read-out: Minimal Inhibitory Concentration(MIC)
Description: as §1, §2, §3

Escherichia coli DC 2 = experiment: MIC, standard strain 9; format: cell-based; settings: DC2, E. coli DC 2, two-fold dilution, Muller Hinton agar, 10^7 CFU/ml, 37° C., 18 hours, read-out: Minimal Inhibitory Concentration(MIC)
Description: as §1, §2, §3

[3] = tested on: Staphylococcus aureus SG 511; experiment: MIC, standard strain 4; format: cell-based; settings: read-out: Minimal Inhibitory Concentration(MIC)
Description: as §1, §2, §4
4. Staphylococcus aureus SG 511

Serratia spp = experiment: MIC, clinically separated strains; format: cell-based; settings: 18 h; for MIC50 / MIC90: 20 clinical strains; for MIC: read-out: range of MIC, 20 clinical strains
Description: as §2

MRSA(KAIST) = experiment: MIC, clinically separated strains; format: cell-based; settings: Staphylococcus aureus, 18 h; for MIC50 / MIC90: 15 clinical strains; for MIC: read-out: range of MIC, 15 clinical strains
Description: as §2

Streptococcus II = experiment: MIC, clinically separated strains; format: cell-based; settings: 18 h; for MIC50 / MIC90: 17 clinical strains; for MIC: read-out: range of MIC, 17 clinical strains
Description: as §2

Pseudomonas aeruginosa = experiment: MIC, clinically separated strains; format: cell-based; settings: 18 h; for MIC50 / MIC90: 20 clinical strains; for MIC: read-out: range of MIC, 20 clinical strains
Description: as §2

Enterococcus II = experiment: MIC, clinically separated strains; format: cell-based; settings: 18 h; for MIC50 / MIC90: 20 clinical strains; for MIC: read-out: range of MIC, 20 clinical strains
Description: as §2

[4] = tested on: Klebsiella aerogenes 1552 E; experiment: MIC, standard strain 18; format: cell-based; settings: K. aerogenes 1552 E, two-fold dilution, Muller Hinton agar, 10^7 CFU/ml, 37° C., 18 hours, read-out: Minimal Inhibitory Concentration(MIC)
Description: as §1, §2, §4
18. Klebsiella aerogenes 1552 E

[5] = tested on: Streptococcus pyogenes A 77; experiment: MIC, standard strain 2; format: cell-based; settings: A77, S. pyogenes A 77, two-fold dilution, Muller Hinton agar, 10^7 CFU/ml, 37° C., 18 hours, read-out: Minimal Inhibitory Concentration(MIC)
Description: as §1, §2, §4
2. Streptococcus pyogenes A 77

[6] = tested on: Pseudomonas aeruginosa 1771; experiment: MIC, standard strain 14; format: cell-based; settings: Pseudomonas aeruginosa; P. aeruginosa 1771; two-fold dilution, Muller Hinton agar, 10^7 CFU/ml, 37° C., 18 hours; read-out: Minimal Inhibitory Concentration(MIC)
Description: as §1, §2, §4
14. Pseudomonas aeruginosa 1771

[7] = tested on: Streptococcus pyogenes A 308; experiment: MIC, standard strain 1; format: cell-based; settings: A308, S. pyogenes A 308, two-fold dilution, Muller Hinton agar, 10^7 CFU/ml, 37° C., 18 hours, read-out: Minimal Inhibitory Concentration(MIC)
Description: as §1, §2, §4
1. Streptococcus pyogenes A 308

[8] = tested on: Gram-negative and Gram-positive bacteria; settings: cited from earlier work
Pseudomonas = settings: compared with DQ-2556 or ceftazidime; cited from earlier work

Row | SMILES | MIC (Escherichia coli TEM) [µg/mL] | MIC [2] [µg/mL] | MIC50 (D StreptococcusII; 19 clinical strains) [µg/mL] | MIC90 (D StreptococcusII; 19 clinical strains) [µg/mL] | MIC (Escherichia coli 1507 E) [µg/mL] | MIC (Escherichia coli DC 2) [µg/mL] | MIC50 (Serratia spp) [µg/mL] | MIC90 (Serratia spp) [µg/mL] | MIC (Serratia spp) [µg/mL] | MIC50 (MRSA(KAIST)) [µg/mL] | MIC90 (MRSA(KAIST)) [µg/mL] | MIC (MRSA(KAIST)) [µg/mL] | MIC50 (Streptococcus II) [ng/mL] | MIC90 (Streptococcus II) [ng/mL] | MIC (Streptococcus II) [ng/mL] | MIC50 (Pseudomonas aeruginosa) [µg/mL] | MIC90 (Pseudomonas aeruginosa) [µg/mL] | MIC (Pseudomonas aeruginosa) [µg/mL] | MIC50 (Enterococcus II) [µg/mL] | MIC90 (Enterococcus II) [µg/mL] | further results
1 | CO/N=C(\C(=O)N[C@@H]1C(=O)N2C(C(=O)[O-])=C(C[n+]3ccc(C(N)=O)c4c3CCC4)CS[C@H]12)c1csc(N)n1 [Example 3] | 49 (≈ 87.9 µM) | 391 (≈ 701 µM) | 25 (≈ 44.8 µM) | 100 (≈ 179 µM) | 25 (≈ 44.8 µM) | 25 (≈ 44.8 µM) | 0.025 (≈ 0.0448 µM) | 0.049 (≈ 0.0879 µM) | 0.025 to 0.049 (≈ 0.0448 to 0.0879 µM) | 6.25 (≈ 11.2 µM) | 50 (≈ 89.7 µM) | 0.781 to 100 (≈ 1.4 to 179 µM) | 4 (≈ 0.00717 µM) | 7 (≈ 0.0126 µM) | 2 to 7 (≈ 0.00359 to 0.0126 µM) | 3.12 (≈ 5.6 µM) | 6.25 (≈ 11.2 µM) | 0.781 to 12.5 (≈ 1.4 to 22.4 µM) | 0.025 (≈ 0.0448 µM) | 1.56 (≈ 2.8 µM) | ED50 [1]: 0.29 mg/kg; LD50 (acute toxicity test): > 3000 mg/kg; MIC (D StreptococcusII; 19 clinical strains): 6.25 to 100 µg/mL (≈ 11.2 to 179 µM); MIC ([3]; SG511, 18 h): 391 µg/mL (≈ 701 µM); MIC (Enterococcus II): 0.007 to 3.12 µg/mL (≈ 0.0126 to 5.6 µM); MIC [4]: 25 µg/mL (≈ 44.8 µM); MIC [5]: 2 µg/mL (≈ 3.59 µM); MIC [6]: 391 µg/mL (≈ 701 µM); MIC [7]: 0.7 µg/mL (≈ 1.26 µM)
2 | CO/N=C(\C(=O)N[C@@H]1C(=O)N2C(C(=O)[O-])=C(C[n+]3cccc4c3CCC4)CS[C@H]12)c1csc(N)n1 [cefpirome, reference compound] | 49 (≈ 95.2 µM) | 13 (≈ 25.3 µM) | 50 (≈ 97.2 µM) | 100 (≈ 194 µM) | 75 (≈ 146 µM) | 49 (≈ 95.2 µM) | 0.049 (≈ 0.0952 µM) | 0.098 (≈ 0.19 µM) | 0.025 to 0.049 (≈ 0.0486 to 0.0952 µM) | 12.5 (≈ 24.3 µM) | 100 (≈ 194 µM) | 0.781 to 100 (≈ 1.52 to 194 µM) | 4 (≈ 0.00777 µM) | 7 (≈ 0.0136 µM) | 2 to 7 (≈ 0.00389 to 0.0136 µM) | 3.12 (≈ 6.07 µM) | 12.5 (≈ 24.3 µM) | 0.781 to 12.5 (≈ 1.52 to 24.3 µM) | 0.049 (≈ 0.0952 µM) | 1.56 (≈ 3.04 µM) | MIC (D StreptococcusII): 6.25 to 100 µg/mL (≈ 12.1 to 194 µM); MIC ([3]; SG511, S. aureus SG 511, two-fold dilution, Muller Hinton agar, 10^7 CFU/ml, 37° C., 18 hours): 391 µg/mL (≈ 760 µM); activity against Gram-negative and Gram-positive bacteria, in words [8]: improved activity against Gram-negative and Gram-positive bacteria; MIC (Enterococcus II): 0.007 to 3.12 µg/mL (≈ 0.0136 to 6.07 µM); MIC [4]: 25 µg/mL (≈ 48.6 µM); MIC [5]: 98 µg/mL (≈ 190 µM); MIC [6]: 391 µg/mL (≈ 760 µM); activity against Pseudomonas, in words (Pseudomonas): inferior to ceftazidime; MIC [7]: 4 µg/mL (≈ 7.77 µM)
